Earlier results as cited in patent publication US20220401390A1, “TREATMENTS OF DIABETIC MACULAR EDEMA AND IMPAIRED VISUAL ACUITY” (KALVISTA PHARMACEUTICALS LIMITED, priority 2019, published 2022).

Experiments:
[1] = system: diabetic rats; details: cited from earlier work
[2] = system: patients with DME; details: clinical trials, after one year; cited from earlier work

Molecule | Retinal vascular permeability and retinal blood flow abnormalities [1] | Efficacy compared with laser therapy [2]
N=C(N)c1ccc(CNC(=O)c2cnn(Cc3ccccc3)c2)cc1 [ASP-440] | ameliorated | –
aflibercept: anti-VEGF therapy for DME currently in use | – | more effective than laser therapy
bevacizumab: anti-VEGF therapy for DME currently in use | – | more effective than laser therapy
pegaptanib | – | more effective than laser therapy
ranibizumab: anti-VEGF therapy for DME currently in use (antibody, chains of the INN, looked up, V domains shown, Fab, anti-VEGF therapy for DME currently in use) VH: EVQLVESGGGLVQPGGSLRLSCAASGYDFTHYGMNWVRQAPGKGLEWVGWINTYTGEPTYAADFKRRFTFSLDTSKSTAYLQMNSLRAEDTAVYYCAKYPYYYGTSHWYFDVWGQGTLVTVSS VL: DIQLTQSPSSLSASVGDRVTITCSASQDISNYLNWYQQKPGKAPKVLIYFTSSLHSGVPSRFSGSGSGTDFTLTISSLQPEDFATYYCQQYSTVPWTFGQGTKVEIK | – | more effective than laser therapy
